Experimental data: PubChem BioAssay AID1963966 (Molecular Pharmacology Branch, DTP, NCI, 2024)

Test system: 935938-334-R-J1-PDC spheroids with HUVEC/MSC, viability
Assay: Anticancer human tumor 935938-334-R-J1-PDC patient-derived small intestine adenocarcinoma cell line growth inhibition [PI3K]
Conditions: for IC50: curve of first compound; for viability, T/C: stronger effect = lower value
How it was run: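 Multi-cell spheroids combine tumor cells with HUVEC and human MSCs, treated with targeted agents alone or with inavolisib, alpelisib, duvelisib or copanlisib. Concentrations fall in half-log steps from at or near clinical Cmax, or from 10 microM where Cmax is unknown; viability read-out.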

[1] = second compound 0.0316 µM, first compound 0.000316 µM
[2] = second compound 0.0316 µM, first compound 0.001 µM
[3] = second compound 0.0316 µM, first compound 0.00316 µM
[4] = second compound 0.0316 µM, first compound 0.01 µM
[5] = second compound 0.0316 µM, first compound 0.0316 µM
[6] = second compound 0.0316 µM, first compound 0.1 µM
[7] = second compound 0.1 µM, first compound 0.000316 µM
[8] = second compound 0.1 µM, first compound 0.001 µM
[9] = second compound 0.1 µM, first compound 0.00316 µM
[10] = second compound 0.1 µM, first compound 0.01 µM
[11] = second compound 0.1 µM, first compound 0.0316 µM
[12] = second compound 0.1 µM, first compound 0.1 µM
[13] = second compound 0.316 µM, first compound 0.000316 µM
[14] = second compound 0.316 µM, first compound 0.001 µM
[15] = second compound 0.316 µM, first compound 0.00316 µM
[16] = second compound 0.316 µM, first compound 0.01 µM
[17] = second compound 0.316 µM, first compound 0.0316 µM
[18] = second compound 0.316 µM, first compound 0.1 µM
[19] = second compound 1 µM, first compound 0.000316 µM
[20] = second compound 1 µM, first compound 0.001 µM
[21] = second compound 1 µM, first compound 0.00316 µM
[22] = second compound 1 µM, first compound 0.01 µM
[23] = second compound 1 µM, first compound 0.0316 µM
[24] = second compound 1 µM, first compound 0.1 µM
[25] = second compound 3.16 µM, first compound 0.000316 µM
[26] = second compound 3.16 µM, first compound 0.001 µM
[27] = second compound 3.16 µM, first compound 0.00316 µM
[28] = second compound 3.16 µM, first compound 0.01 µM
[29] = second compound 3.16 µM, first compound 0.0316 µM
[30] = second compound 3.16 µM, first compound 0.1 µM
[31] = second compound 10 µM, first compound 0.000316 µM
[32] = second compound 10 µM, first compound 0.001 µM
[33] = second compound 10 µM, first compound 0.00316 µM
[34] = second compound 10 µM, first compound 0.01 µM
[35] = second compound 10 µM, first compound 0.0316 µM
[36] = second compound 10 µM, first compound 0.1 µM
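Further: compound exposure lasted seven days before viability was read.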
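Wherever viability, T/C is given: percent of vehicle DMSO treated spheroid viability so 100% = untreated.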

## CC(=O)c1c(C)c2cnc(Nc3ccc(N4CCNCC4)cn3)nc2n(C2CCCC2)c1=O + Cc1nc(NC(=O)N2CCCC2C(N)=O)sc1-c1ccnc(C(C)(C)C(F)(F)F)c1
Second compound 0.0316 µM
  IC50: > 100 nM
Second compound 0.1 µM
  IC50: > 100 nM
Second compound 0.316 µM
  IC50: 58.2 nM
Second compound 1 µM
  IC50: 27.8 nM
Second compound 3.16 µM
  IC50: 2.55 nM
Second compound 10 µM
  IC50: < 0.316 nM
[1]
  viability, T/C: 104%
[2]
  viability, T/C: 95.7%
[3]
  viability, T/C: 112%
[4]
  viability, T/C: 102%
[5]
  viability, T/C: 74.8%
[6]
  viability, T/C: 55.9%
[7]
  viability, T/C: 94.4%
[8]
  viability, T/C: 96.5%
[9]
  viability, T/C: 89.4%
[10]
  viability, T/C: 78.5%
[11]
  viability, T/C: 85.7%
[12]
  viability, T/C: 52.8%
[13]
  viability, T/C: 87.8%
[14]
  viability, T/C: 75%
[15]
  viability, T/C: 63.4%
[16]
  viability, T/C: 80.7%
[17]
  viability, T/C: 51.6%
[18]
  viability, T/C: 44.1%
[19]
  viability, T/C: 77%
[20]
  viability, T/C: 49.8%
[21]
  viability, T/C: 63.3%
[22]
  viability, T/C: 76.4%
[23]
  viability, T/C: 47.9%
[24]
  viability, T/C: 31.1%
[25]
  viability, T/C: 67.2%
[26]
  viability, T/C: 61.8%
[27]
  viability, T/C: 43.7%
[28]
  viability, T/C: 42%
[29]
  viability, T/C: 33.1%
[30]
  viability, T/C: 29.9%
[31]
  viability, T/C: 39.5%
[32]
  viability, T/C: 40%
[33]
  viability, T/C: 35.3%
[34]
  viability, T/C: 37.2%
[35]
  viability, T/C: 33.3%
[36]
  viability, T/C: 26.5%

## CC(C)n1nc(-c2ccc3oc(N)nc3c2)c2c(N)ncnc21 + Cc1nc(NC(=O)N2CCCC2C(N)=O)sc1-c1ccnc(C(C)(C)C(F)(F)F)c1
Second compound 0.0316 µM
  IC50: > 100 nM
Second compound 0.1 µM
  IC50: > 100 nM
Second compound 0.316 µM
  IC50: 17 nM
Second compound 1 µM
  IC50: 7.19 nM
Second compound 3.16 µM
  IC50: 3.77 nM
Second compound 10 µM
  IC50: < 0.316 nM
[1]
  viability, T/C: 91.5%
[2]
  viability, T/C: 91%
[3]
  viability, T/C: 81.3%
[4]
  viability, T/C: 93.6%
[5]
  viability, T/C: 64.9%
[6]
  viability, T/C: 51.6%
[7]
  viability, T/C: 89%
[8]
  viability, T/C: 82.1%
[9]
  viability, T/C: 75.9%
[10]
  viability, T/C: 92%
[11]
  viability, T/C: 68.7%
[12]
  viability, T/C: 54.5%
[13]
  viability, T/C: 83.4%
[14]
  viability, T/C: 72.2%
[15]
  viability, T/C: 92.8%
[16]
  viability, T/C: 54.1%
[17]
  viability, T/C: 54.9%
[18]
  viability, T/C: 35.5%
[19]
  viability, T/C: 66.5%
[20]
  viability, T/C: 74.3%
[21]
  viability, T/C: 66.8%
[22]
  viability, T/C: 42.5%
[23]
  viability, T/C: 37.6%
[24]
  viability, T/C: 27.1%
[25]
  viability, T/C: 51%
[26]
  viability, T/C: 59.8%
[27]
  viability, T/C: 47.8%
[28]
  viability, T/C: 43%
[29]
  viability, T/C: 27.3%
[30]
  viability, T/C: 28.9%
[31]
  viability, T/C: 35.5%
[32]
  viability, T/C: 37.7%
[33]
  viability, T/C: 61.5%
[34]
  viability, T/C: 35%
[35]
  viability, T/C: 37.3%
[36]
  viability, T/C: 30.1%

## CCCS(=O)(=O)Nc1ccc(F)c(C(=O)c2c[nH]c3ncc(-c4ccc(Cl)cc4)cc23)c1F + Cc1nc(NC(=O)N2CCCC2C(N)=O)sc1-c1ccnc(C(C)(C)C(F)(F)F)c1
Second compound 0.0316 µM
  IC50: 6360 nM
Second compound 0.1 µM
  IC50: 6490 nM
Second compound 0.316 µM
  IC50: 5570 nM
Second compound 1 µM
  IC50: 5520 nM
Second compound 3.16 µM
  IC50: 4600 nM
Second compound 10 µM
  IC50: 31.6 nM
[5]
  viability, T/C: 85.6%
[6]
  viability, T/C: 113%
Second compound 0.0316 µM, first compound 0.316 µM
  viability, T/C: 98.5%
Second compound 0.0316 µM, first compound 1 µM
  viability, T/C: 97.6%
Second compound 0.0316 µM, first compound 3.16 µM
  viability, T/C: 94.1%
Second compound 0.0316 µM, first compound 10 µM
  viability, T/C: 21.5%
[11]
  viability, T/C: 90.2%
[12]
  viability, T/C: 75.4%
Second compound 0.1 µM, first compound 0.316 µM
  viability, T/C: 105%
Second compound 0.1 µM, first compound 1 µM
  viability, T/C: 112%
Second compound 0.1 µM, first compound 3.16 µM
  viability, T/C: 98.2%
Second compound 0.1 µM, first compound 10 µM
  viability, T/C: 22.3%
[17]
  viability, T/C: 82%
[18]
  viability, T/C: 110%
Second compound 0.316 µM, first compound 0.316 µM
  viability, T/C: 88.9%
Second compound 0.316 µM, first compound 1 µM
  viability, T/C: 95.5%
Second compound 0.316 µM, first compound 3.16 µM
  viability, T/C: 81.2%
Second compound 0.316 µM, first compound 10 µM
  viability, T/C: 17.6%
[23]
  viability, T/C: 75.3%
[24]
  viability, T/C: 85%
Second compound 1 µM, first compound 0.316 µM
  viability, T/C: 88%
Second compound 1 µM, first compound 1 µM
  viability, T/C: 74.1%
Second compound 1 µM, first compound 3.16 µM
  viability, T/C: 77.1%
Second compound 1 µM, first compound 10 µM
  viability, T/C: 21.2%
[29]
  viability, T/C: 63.1%
[30]
  viability, T/C: 52.7%
Second compound 3.16 µM, first compound 0.316 µM
  viability, T/C: 69%
Second compound 3.16 µM, first compound 1 µM
  viability, T/C: 65.5%
Second compound 3.16 µM, first compound 3.16 µM
  viability, T/C: 67.5%
Second compound 3.16 µM, first compound 10 µM
  viability, T/C: 22.1%
[35]
  viability, T/C: 36.9%
[36]
  viability, T/C: 47.2%
Second compound 10 µM, first compound 0.316 µM
  viability, T/C: 54.2%
Second compound 10 µM, first compound 1 µM
  viability, T/C: 51.7%
Second compound 10 µM, first compound 3.16 µM
  viability, T/C: 54.4%
Second compound 10 µM, first compound 10 µM
  viability, T/C: 18.2%
